Laboratory results published in the supplement of paper PMC11208160.

Assay: recombinant barcode read abundance after kanamycin selection (control-corrected) (log10(CPM+1)); higher = more efficient recombination; sequences stand for … in AGTGCAGAGAAAATCGGCCAGTTTTCTCTGCCTGCAGTCCGCATGCCGT…AGATTTATGCAGCGGACTGCCTTTCTCCCAAAGTGATAAACCGGACAGTATCATGGACCGGTTTTCCCGGTAATCCGTATTTGCAAGGTTGGTTTCACT; site = the 11-nt target
Method: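 Pooled E. coli target-specificity screen for the IS621 bridge recombinase. Each library plasmid pairs an 11-nt target (CT core) with a bridge RNA whose target-binding loop (9-nt LTG + 4-nt RTG) is reprogrammed; the rest of the 177-nt WT IS621 bridge RNA scaffold is fixed. The plasmid is co-electroporated with a WT donor plasmid; recombinase is induced with 0.1 mM IPTG and recombinants are selected on kanamycin. Recombinant barcodes are sequenced, converted to CPM, averaged over two biological replicates and corrected by the unselected control CPM. Molecule = full bridge RNA written as DNA: LTG = specificity nt 1-9, RTG = reverse complement of specificity nt 8-11, in the WT scaffold.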
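Also: IS621 recombinase and bridge RNA in Escherichia coli cells.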

ACGGACCCTTGGGTTCTAACCTGTTGCAT (site ACGAACCCTAG)
recombinant barcode read abundance (log10): 0.225

ACGGACCCTTGGGTTCTAACCTGTTGCAT (site ACGGACCCTAT)
recombinant barcode read abundance (log10): 2.82

ACGGAGACTTGGGTTCTAACCTGTTGCAT (site ACGGAGACTAT)
recombinant barcode read abundance (log10): 2.78

ACGGAGACTTGGGTTCTAACCTGTTGCAT (site GTACTACCTCG)
recombinant barcode read abundance (log10): 0.108

ACGGCTCCTTGGGTTCTAACCTGTTGCTG (site ACGACTCCTCA)
recombinant barcode read abundance (log10): 0.0439

ACGGCTCCTTGGGTTCTAACCTGTTGCTG (site ACGCCTCCTCA)
recombinant barcode read abundance (log10): 0.116

ACGGCTCCTTGGGTTCTAACCTGTTGCTG (site ACGGCTCCTCA)
recombinant barcode read abundance (log10): 1.35

ACGGCTCCTTGGGTTCTAACCTGTTGCTG (site ACGTCTCCTCA)
recombinant barcode read abundance (log10): 0.123

ACGGGGCCTTGGGTTCTAACCTGTTGCCG (site ACGGGGCCTCG)
recombinant barcode read abundance (log10): 1.88

ACGGGGCCTTGGGTTCTAACCTGTTGCCG (site GTATATACTAA)
recombinant barcode read abundance (log10): 0.116

ACGGGTACTTGGGTTCTAACCTGTTGCCA (site AAGGGTTCTTG)
recombinant barcode read abundance (log10): 0.355

ACGGGTACTTGGGTTCTAACCTGTTGCCA (site ACGGGTACTTG)
recombinant barcode read abundance (log10): 1.02

ACGGTTGCTTGGGTTCTAACCTGTTGCCT (site ACGGGTGCTAG)
recombinant barcode read abundance (log10): 0.434

ACGGTTGCTTGGGTTCTAACCTGTTGCCT (site ACGGTTGCTAG)
recombinant barcode read abundance (log10): 2.22

ACGTAATCTTGGGTTCTAACCTGTTGCTT (site ACGTAATCTAA)
recombinant barcode read abundance (log10): 0.207

ACGTAATCTTGGGTTCTAACCTGTTGCTT (site CGGTAATCTAA)
recombinant barcode read abundance (log10): 0.246

ACGTGAACTTGGGTTCTAACCTGTTGCCT (site ACATGAACTAG)
recombinant barcode read abundance (log10): 0.532

ACGTGAACTTGGGTTCTAACCTGTTGCCT (site ACCTGAACTAG)
recombinant barcode read abundance (log10): 0.0714

ACGTGAACTTGGGTTCTAACCTGTTGCCT (site ACGTGAACTAG)
recombinant barcode read abundance (log10): 0.416

ACGTGAACTTGGGTTCTAACCTGTTGCCT (site ACTTGAACTAG)
recombinant barcode read abundance (log10): 0.0355

ACGTGTCCTTGGGTTCTAACCTGTTGCGG (site ACGTGTCCTCC)
recombinant barcode read abundance (log10): 1.88

ACGTGTCCTTGGGTTCTAACCTGTTGCGG (site GGAGAGACTAT)
recombinant barcode read abundance (log10): 0.242

ACGTTGTCTTGGGTTCTAACCTGTTGCCT (site ACATTGTCTAG)
recombinant barcode read abundance (log10): 1.24

ACGTTGTCTTGGGTTCTAACCTGTTGCCT (site ACCTTGTCTAG)
recombinant barcode read abundance (log10): 0.0624

ACGTTGTCTTGGGTTCTAACCTGTTGCCT (site ACGTTGTCTAG)
recombinant barcode read abundance (log10): 0.767

ACGTTGTCTTGGGTTCTAACCTGTTGCCT (site ACTTTGTCTAG)
recombinant barcode read abundance (log10): 0.0891

ACTAAGACTTGGGTTCTAACCTGTTGCTG (site ACTAAGACTCA)
recombinant barcode read abundance (log10): 1.96

ACTAAGACTTGGGTTCTAACCTGTTGCTG (site AGTAAGACTTA)
recombinant barcode read abundance (log10): 0.0302

ACTACTCCTTGGGTTCTAACCTGTTGCGA (site ACTACTCCTTC)
recombinant barcode read abundance (log10): 0.93

ACTACTCCTTGGGTTCTAACCTGTTGCGA (site ACTAGTCCTTG)
recombinant barcode read abundance (log10): 0.119

ACTAGGACTTGGGTTCTAACCTGTTGCGG (site ACTAGGACTAC)
recombinant barcode read abundance (log10): 0.0821

ACTAGGACTTGGGTTCTAACCTGTTGCGG (site ACTAGGACTCC)
recombinant barcode read abundance (log10): 2.93

ACTAGGACTTGGGTTCTAACCTGTTGCGG (site ACTAGGACTGC)
recombinant barcode read abundance (log10): 0.444

ACTAGGACTTGGGTTCTAACCTGTTGCGG (site ACTAGGACTTC)
recombinant barcode read abundance (log10): 0.302

ACTAGTCCTTGGGTTCTAACCTGTTGCAT (site ACTAGTCCTAA)
recombinant barcode read abundance (log10): 0.239

ACTAGTCCTTGGGTTCTAACCTGTTGCAT (site ACTAGTCCTAC)
recombinant barcode read abundance (log10): 0.0726

ACTAGTCCTTGGGTTCTAACCTGTTGCAT (site ACTAGTCCTAG)
recombinant barcode read abundance (log10): 0.0896

ACTAGTCCTTGGGTTCTAACCTGTTGCAT (site ACTAGTCCTAT)
recombinant barcode read abundance (log10): 1.29

ACTAGTCCTTGGGTTCTAACCTGTTGCGT (site ACTAGTCCTAA)
recombinant barcode read abundance (log10): 0.0427

ACTAGTCCTTGGGTTCTAACCTGTTGCGT (site ACTAGTCCTAC)
recombinant barcode read abundance (log10): 2.25

ACTAGTCCTTGGGTTCTAACCTGTTGCGT (site ACTAGTCCTAG)
recombinant barcode read abundance (log10): 0.133

ACTAGTCCTTGGGTTCTAACCTGTTGCGT (site ACTAGTCCTAT)
recombinant barcode read abundance (log10): 0.894

ACTATAACTTGGGTTCTAACCTGTTGCTT (site ACTATAACTAA)
recombinant barcode read abundance (log10): 0.401

ACTATAACTTGGGTTCTAACCTGTTGCTT (site ACTCTAACTAA)
recombinant barcode read abundance (log10): 0.535

ACTATAACTTGGGTTCTAACCTGTTGCTT (site ACTGTAACTAA)
recombinant barcode read abundance (log10): 0.125

ACTATAACTTGGGTTCTAACCTGTTGCTT (site ACTTTAACTAA)
recombinant barcode read abundance (log10): 0.0487

ACTCACACTTGGGTTCTAACCTGTTGCTT (site ACTCACACTAA)
recombinant barcode read abundance (log10): 1.06

ACTCACACTTGGGTTCTAACCTGTTGCTT (site GGAGCTCCTCG)
recombinant barcode read abundance (log10): 0.00954

ACTCAGACTTGGGTTCTAACCTGTTGCAC (site ACTCAGACTGT)
recombinant barcode read abundance (log10): 1.9

ACTCAGACTTGGGTTCTAACCTGTTGCAC (site GGAGGTCCTCG)
recombinant barcode read abundance (log10): 0.222

ACTCCAGCTTGGGTTCTAACCTGTTGCCT (site ACTCCAGCTAG)
recombinant barcode read abundance (log10): 1.79

ACTCCAGCTTGGGTTCTAACCTGTTGCCT (site TAGTTTACTCT)
recombinant barcode read abundance (log10): 0.0793

ACTCGTTCTTGGGTTCTAACCTGTTGCTT (site ACTCGTTCTAA)
recombinant barcode read abundance (log10): 0.326

ACTCGTTCTTGGGTTCTAACCTGTTGCTT (site GCTAGTTCTAA)
recombinant barcode read abundance (log10): 0.0673

ACTCTACCTTGGGTTCTAACCTGTTGCTA (site ACCCTCCCTTA)
recombinant barcode read abundance (log10): 0.0533

ACTCTACCTTGGGTTCTAACCTGTTGCTA (site ACTCTACCTTA)
recombinant barcode read abundance (log10): 1.12

ACTCTAGCTTGGGTTCTAACCTGTTGCTC (site ACTCTAGCTGA)
recombinant barcode read abundance (log10): 1.05

ACTCTAGCTTGGGTTCTAACCTGTTGCTC (site GCTCTAGCTTA)
recombinant barcode read abundance (log10): 0.265

ACTCTGTCTTGGGTTCTAACCTGTTGCTT (site ACCCTATCTAA)
recombinant barcode read abundance (log10): 0.124
